# ChEMBL document CHEMBL4419120, “Bitter taste receptors” (2015)
# pEC50: −log10 of the molar value. Calls of active or inactive are those of the source.
# Columns and labels:
# [1] = biological target: T1, Taste receptor type 2 member 16 (Homo sapiens) (UniProt Q9NYV7); test: Activity at human TAS2R16 expressed in HEK-293T-Galpha16-gustducin44 cells assessed as threshold concentration of compound at which point receptor detects compounds by measuring calcium response by FLIPR assay; format: functional, cell-based
# T1 sequence (whole entry): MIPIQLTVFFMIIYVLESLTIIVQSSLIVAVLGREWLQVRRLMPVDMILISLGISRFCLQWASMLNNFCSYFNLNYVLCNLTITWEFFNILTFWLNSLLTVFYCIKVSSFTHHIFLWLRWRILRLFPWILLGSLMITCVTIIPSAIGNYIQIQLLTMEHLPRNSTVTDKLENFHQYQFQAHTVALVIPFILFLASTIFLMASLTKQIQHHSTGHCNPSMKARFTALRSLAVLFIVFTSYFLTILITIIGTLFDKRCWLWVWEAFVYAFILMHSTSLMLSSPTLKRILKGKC
# [2] = biological target: T1, Taste receptor type 2 member 16 (Homo sapiens); test: Activity at human TAS2R16 expressed in HEK293/15 cells assessed as threshold concentration of compound at which point receptor detects compounds by measuring calcium response by FLIPR assay; format: functional, cell-based
# [3] = biological target: T2, Taste receptor type 2 member 38 (Homo sapiens, UniProt P59533); test: Activity at human TAS2R38 expressed in HEK-293T-Galpha16-gustducin44 cells assessed as effect on calcium response by FLIPR assay; format: functional, cell-based
# T2 sequence (P59533 whole entry): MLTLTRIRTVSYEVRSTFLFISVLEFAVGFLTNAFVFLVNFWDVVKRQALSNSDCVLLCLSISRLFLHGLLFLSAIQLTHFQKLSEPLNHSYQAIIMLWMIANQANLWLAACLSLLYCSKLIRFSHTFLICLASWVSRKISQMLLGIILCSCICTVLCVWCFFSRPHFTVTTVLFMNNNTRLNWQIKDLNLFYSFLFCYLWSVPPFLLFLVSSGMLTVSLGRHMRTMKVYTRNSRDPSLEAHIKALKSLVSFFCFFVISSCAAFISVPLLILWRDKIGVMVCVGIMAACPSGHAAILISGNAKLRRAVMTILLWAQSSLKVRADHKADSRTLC
# [4] = biological target: T3, Taste receptor type 2 member 38 (Homo sapiens) (UniProt P59533); test: Activity at human TAS2R38 expressed in HEK-293T-Galpha16-gustducin44 cells assessed as threshold concentration of compound at which point receptor detects compounds by measuring calcium response by FLIPR assay; format: functional, cell-based
# T3 sequence (whole entry): T2 sequence (P59533 whole entry)
# Homo sapiens [5] = test: In-vivo activity at TAS2R16 in trained human taste panelists assessed as detection of bitterness intensity of compound in sensory panel room at 22 to 25 degC by triangle test with tap water as solvent; format: functional, organism-based
# Homo sapiens [6] = test: In-vivo activity at TAS2R16 in trained human taste panelists assessed as threshold concentration of compound at which point panelists detects bitterness intensity of compound in sensory panel room at 22 to 25 degC by triangle test with tap water as solvent; format: functional
# [7] = biological target: T4, Taste receptor type 2 member 16 (Homo sapiens, UniProt Q9NYV7); test: Activity at human TAS2R16 expressed in HEK293/15 cells assessed as effect on calcium response by FLIPR assay; format: functional, cell-based
# T4 sequence (Q9NYV7 whole entry): T1 sequence (whole entry)
# [8] = biological target: T4, Taste receptor type 2 member 16; test: Activity at human TAS2R16 expressed in HEK-293T-Galpha16-gustducin44 cells assessed as effect on calcium response by FLIPR assay; format: functional, cell-based
# [9] = biological target: T1, Taste receptor type 2 member 16 (Homo sapiens); test: Activity at human TAS2R16 expressed in HEK293/15 cells assessed as effect on calcium response up to 100 mM by FLIPR assay; format: functional, cell-based
# [10] = biological target: T1, Taste receptor type 2 member 16 (Homo sapiens); test: Activity at human TAS2R16 expressed in HEK293/15 cells assessed as threshold concentration of compound at which point receptor detects compounds by measuring calcium response up to 100 mM by FLIPR assay; format: functional, cell-based
# [11] = biological target: T5, Taste receptor type 2 member 14 (Homo sapiens) (UniProt Q9NYV8); test: Activity at human TAS2R14 expressed in HEK-293T-Galpha16-gustducin44 cells assessed as concentration of compound which reacts with receptor by measuring calcium response by FLIPR assay; format: functional, cell-based
# T5 sequence (whole entry): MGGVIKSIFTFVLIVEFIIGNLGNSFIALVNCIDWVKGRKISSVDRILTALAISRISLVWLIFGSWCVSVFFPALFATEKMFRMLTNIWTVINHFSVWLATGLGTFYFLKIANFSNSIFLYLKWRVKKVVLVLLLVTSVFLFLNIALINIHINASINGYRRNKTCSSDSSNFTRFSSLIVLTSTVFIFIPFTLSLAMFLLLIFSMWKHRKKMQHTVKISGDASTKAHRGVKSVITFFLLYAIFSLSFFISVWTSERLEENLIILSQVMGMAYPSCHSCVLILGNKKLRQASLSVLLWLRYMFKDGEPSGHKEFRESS
# [12] = biological target: T3, Taste receptor type 2 member 38 (Homo sapiens); test: Activity at human TAS2R38 expressed in HEK-293T-Galpha16-gustducin44 cells assessed as concentration of compound which reacts with receptor by measuring calcium response by FLIPR assay; format: functional, cell-based
# [13] = biological target: T6, Taste receptor type 2 member 10 (Homo sapiens, UniProt Q9NYW0); test: Activity at human TAS2R10 expressed in HEK-293T-Galpha16-gustducin44 cells assessed as effect on calcium response by FLIPR assay; format: functional, cell-based
# T6 sequence (Q9NYW0 whole entry): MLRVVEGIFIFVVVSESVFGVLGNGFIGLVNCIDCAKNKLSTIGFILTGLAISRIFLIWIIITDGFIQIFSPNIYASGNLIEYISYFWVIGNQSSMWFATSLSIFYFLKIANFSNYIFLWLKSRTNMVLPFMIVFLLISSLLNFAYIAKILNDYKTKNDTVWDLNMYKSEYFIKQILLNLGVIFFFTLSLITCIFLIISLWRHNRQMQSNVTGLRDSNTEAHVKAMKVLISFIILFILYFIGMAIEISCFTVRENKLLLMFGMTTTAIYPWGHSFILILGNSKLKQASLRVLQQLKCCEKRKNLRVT
# [14] = biological target: T7, Taste receptor type 2 member 10 (Homo sapiens) (UniProt Q9NYW0); test: Activity at human TAS2R10 expressed in HEK-293T-Galpha16-gustducin44 cells assessed as threshold concentration of compound at which point receptor detects compounds by measuring calcium response by FLIPR assay; format: functional, cell-based
# T7 sequence (whole entry): T6 sequence (Q9NYW0 whole entry)
# [15] = biological target: T7, Taste receptor type 2 member 10 (Homo sapiens); test: Activity at human TAS2R10 expressed in HEK293/15 cells assessed as compound concentration showing threshold of activation on calcium response by FLIPR assay; format: functional, cell-based
compound,measurement,setting,value
O=[N+]([O-])c1ccccc1O[C@@H]1O[C@H](CO)[C@@H](O)[C@H](O)[C@H]1O,Activity,[1],0.3 to 1 mM
same,Activity,[2],1.5 mM
NC(=S)Nc1ccccc1 [PHENYLTHIOUREA],pEC50,[3],5.70
same,Activity,[4],0.3 µM
OC[C@H]1O[C@@H](Oc2ccc3ccccc3c2)[C@H](O)[C@@H](O)[C@@H]1O,pEC50,Homo sapiens [5],2.85
same,Activity,[1],0.4 mM
same,Activity,Homo sapiens [6],0.2 mM
same,Activity,[2],0.4 mM
same,pEC50,[7],3.00
same,pEC50,[8],3.00
CN(C)C(=S)N(C)C,pEC50,[3],4.00
same,Activity,[4],10 to 30 µM
OC[C@H]1O[C@@H](Oc2ccccc2)[C@H](O)[C@@H](O)[C@H]1O,Activity,[9],inactive
same,Activity,[10],inactive
same,Activity,Homo sapiens [6],40 mM
OC[C@H]1O[C@@H](Oc2ccccc2)[C@H](O)[C@@H](O)[C@@H]1O,pEC50,Homo sapiens [5],3.15
same,Activity,[1],0.07 mM
same,Activity,Homo sapiens [6],0.1 mM
same,Activity,[2],0.07 mM
same,pEC50,[7],2.96
same,pEC50,[8],2.96
N#C[C@H](O[C@@H]1O[C@H](CO[C@@H]2O[C@H](CO)[C@@H](O)[C@H](O)[C@H]2O)[C@@H](O)[C@H](O)[C@H]1O)c1ccccc1 [AMYGDALIN],Activity,[1],2.3 mM
same,Activity,[2],2.3 mM
same,pEC50,[7],1.70
same,pEC50,[8],1.70
CC(=O)NC(N)=S,pEC50,[3],4.82
same,Activity,[4],2 µM
CO[C@@H]1O[C@H](CO)[C@@H](O)[C@H](O)[C@H]1O,Activity,[1],15 mM
same,Activity,Homo sapiens [6],32 mM
same,Activity,[2],15 mM
same,pEC50,[8],1.49
N[C@@H](Cc1ccc(O)cc1)C(=O)O,Activity,[11],1 mM
O=C1CC(=O)NC(=S)N1,Activity,[12],10 mM
CC[N+](CC)(CC(=O)Nc1c(C)cccc1C)Cc1ccccc1 [DENATONIUM BENZOATE],pEC50,[13],4.15
same,Activity,[14],0.003 mM
OC[C@H]1O[C@H](Oc2ccccc2)[C@H](O)[C@@H](O)[C@@H]1O,pEC50,Homo sapiens [5],1.30
same,Activity,[9],inactive
same,Activity,[10],inactive
same,Activity,Homo sapiens [6],9 mM
CC(=S)Nc1ccccc1,pEC50,[3],4.74
same,Activity,[4],3 µM
OC[C@H]1O[C@@H](Oc2ccc(O)cc2)[C@H](O)[C@@H](O)[C@@H]1O [ARBUTIN],pEC50,Homo sapiens [5],2.27
same,Activity,[1],0.5 mM
same,Activity,Homo sapiens [6],0.9 mM
same,Activity,[2],0.5 mM
same,pEC50,[7],2.24
same,pEC50,[8],2.24
O=[N+]([O-])c1ccc(O[C@@H]2O[C@H](CO)[C@@H](O)[C@H](O)[C@H]2O)cc1,Activity,[1],1 to 3 mM
CNC(N)=S,pEC50,[3],3.10 to 3.22
same,Activity,[4],100 µM
CC(=N)S,Activity,[4],100 µM
O=c1cc(-c2ccccc2)[nH]c(=S)[nH]1,pEC50,[3],6.30
same,Activity,[4],0.15 µM
O=c1ccc2cc(O[C@@H]3O[C@H](CO)[C@@H](O)[C@H](O)[C@H]3O)c(O)cc2o1 [ESCULIN],Activity,[1],4 mM
same,Activity,Homo sapiens [6],4 mM
same,Activity,[2],4 mM
O=C1C[C@@H]2OCC=C3CN4CC[C@]56c7ccccc7N1[C@H]5[C@H]2[C@H]3C[C@H]46 [STRYCHNINE],Activity,[15],0.1 µM
same,pEC50,[13],4.40
same,Activity,[14],0.003 mM
COc1cc2c(cc1OC)[C@@]13CCN4CC5=CCO[C@H]6CC(=O)N2[C@H]1[C@H]6[C@H]5C[C@H]43 [BRUCINE],Activity,[15],Active
same,pEC50,[13],4.22
same,Activity,[14],0.01 mM
OCc1ccccc1O[C@@H]1O[C@H](CO)[C@@H](O)[C@H](O)[C@H]1O [SALICIN],pEC50,Homo sapiens [5],2.96
same,Activity,[1],0.07 mM
same,Activity,Homo sapiens [6],0.2 mM
same,Activity,[2],0.07 mM
same,pEC50,[7],2.85
same,pEC50,[8],2.85
O=[N+]([O-])c1ccc(S[C@@H]2O[C@H](CO)[C@@H](O)[C@H](O)[C@H]2O)cc1,Activity,[1],1 to 5 mM
O=c1cc[nH]c(=S)[nH]1 [THIOURACIL],pEC50,[3],2.70
same,Activity,[4],300 µM
O=Cc1ccccc1O[C@@H]1O[C@H](CO)[C@@H](O)[C@H](O)[C@H]1O [HELICIN],pEC50,Homo sapiens [5],2.66
same,Activity,[1],0.3 mM
same,Activity,Homo sapiens [6],0.4 mM
same,Activity,[2],0.3 mM
same,pEC50,[7],2.64
same,pEC50,[8],2.64
CN(C)C=S,pEC50,[3],4.26
same,Activity,[4],10 µM
CCNC(N)=S,pEC50,[3],3.59
S=C1NCCN1,Activity,[4],10 µM
CC/N=C(/N)S,Activity,[4],30 µM
CCCc1cc(=O)[nH]c(=S)[nH]1 [PROPYLTHIOURACIL],pEC50,[3],5.70
same,Activity,[4],0.3 µM
O=[N+]([O-])c1ccc(O[C@@H]2O[C@H](CO)[C@@H](O)[C@H](O)[C@@H]2O)cc1,Activity,[1],1 to 3 mM
